Test results: patent publication US20150183834A1 (priority 2005, published 2015)

Tests used:
human PBMC [1] = type: cell-based
human PBMC [2] = type: cell-based; remark: listed apart in the source
human PBMC [3] = type: cell-based; remark: listed apart in the source
human PBMC [4] = type: cell-based; remark: listed apart in the source
human PBMC [5] = type: cell-based; remark: listed apart in the source
Rhesus macaque PBMC [6] = type: cell-based, Rhesus (Macaca mulatta)
Rhesus macaque PBMC [7] = type: cell-based, Rhesus (Macaca mulatta); remark: listed apart in the source
Rhesus macaque PBMC [8] = type: cell-based, Rhesus (Macaca mulatta); remark: listed apart in the source
[9] = system: human peripheral blood mononuclear cells (PBMCs); type: cell-based
[10] = system: purified human CD4+ and CD8+ T cells; type: cell-based
protein kinase C = settings: cited from earlier work

LLNRKAIDFLLQRWGGT [REBOV peptide]
absolute T cell numbers (in words) (human PBMC [1]): no significant depletion | expression levels of CD4 and CD8 on PBMC (in words) (human PBMC [1]): No decrease | percentage of cells positive for CD4 and CD8 (human PBMC [1]): not | CD69+CD4+ T cells (in words) (human PBMC [2]): No effect | IL-2R (CD25) expression in CD4+ and CD8+ T cells (in words) (human PBMC [2]): No effect | percentage of CD69+ CD8+ T cells (in words) (human PBMC [2]): No effect | percentages of both CD69+CD4+ T cells and CD69+CD8+ T cells (in words) (human PBMC [2]): No effect | BrdU labeling (in words) (human PBMC [3]): No significant change | cycling pattern (in words) (human PBMC [3]): No change | induction of apoptosis in CD4+ and CD8+ T cells (in words) (human PBMC [4]): No significant induction | cytokine production overall (in words) (human PBMC [5]): No effects | depletion of CD4+ T cells and CD8+ T cells (in words) (Rhesus macaque PBMC [6]): Significant depletion | fold decrease in the number of CD4+ T cells (Rhesus macaque PBMC [6]): 4.5 fold | fold decrease in the number of CD8+ T cells (Rhesus macaque PBMC [6]): 4.6 fold | mean fluorescent intensity of CD69 expression on CD4+ and CD8+ T cells (Rhesus macaque PBMC [6]): decreased | number of CD4+ T cells (Rhesus macaque PBMC [6]): 4.8±0.7 ×10^4 | number of CD8+ T cells (Rhesus macaque PBMC [6]): 2.3±0.4 ×10^4 | percentage of CD4+ rhesus T cells that are CD69+ (Rhesus macaque PBMC [6]): 63.6±1.9% | percentage of CD8+ rhesus T cells that are CD69+ (Rhesus macaque PBMC [6]): 60.7±3.1% | fold increase in apoptotic CD4+ cells (Rhesus macaque PBMC [7]): 3.1 fold | fold increase in apoptotic CD8+ cells (Rhesus macaque PBMC [7]): 2.6 fold | percentage of Annexin V+ P1− CD8+ (Rhesus macaque PBMC [7]): 31.8±3.3% | IFN-γ (Rhesus macaque PBMC [8]): significant decrease | IL1-β (Rhesus macaque PBMC [8]): significant decrease | IL-12p40 (Rhesus macaque PBMC [8]): significant decrease | Levels of IL-8 (Rhesus macaque PBMC [8]): did not alter | Levels of MIP1-α (Rhesus macaque PBMC [8]): did not alter | TNF-α (Rhesus macaque PBMC [8]): significant decrease | release of IL-2 (Rhesus macaque PBMC [8]): decreased release

LINRHAIDFLLTRWGGT [MARV peptide]
percentage of cells positive for CD4 and CD8 (human PBMC [1]): significant decrease | CD69+CD4+ T cells (in words) (human PBMC [2]): trend toward reduction | percentage of CD69+ CD8+ T cells (in words) (human PBMC [2]): significant reduction | percentages of both CD69+CD4+ T cells and CD69+CD8+ T cells (in words) (human PBMC [2]): significant reduction | induction of apoptosis in CD4+ and CD8+ T cells (in words) (human PBMC [4]): Effects were similar

ILNRKAIDFLLQRWGGT [ZEBOV peptide]
fold decrease in the number of CD4+ T cells (human PBMC [1]): 7.4 fold | fold decrease in the number of CD8+ T cells (human PBMC [1]): 4.4 fold | fold reduction in the cell surface expression of CD4 (human PBMC [1]): 3.5 fold | fold reduction in the cell surface expression of CD8 (human PBMC [1]): 4.2 fold | mean fluorescence intensity value for CD4 expression ± SD (human PBMC [1]): 961±40 | mean fluorescence intensity value for CD8 expression ± SD (human PBMC [1]): 4,025±75 | number of CD4+ T cells (human PBMC [1]): 5.5±1.8 ×10^4 | number of CD8+ T cells (human PBMC [1]): 5.8±1.6 ×10^4 | percentage of cells positive for CD4 and CD8 (human PBMC [1]): significant decrease | mean fluorescent intensity of CD25 expression on CD4+ and CD8+ T cells (human PBMC [2]): decreased | mean fluorescent intensity of CD69 expression on CD4+ and CD8+ T cells (human PBMC [2]): decreased | percentage of CD4+ T cells that are CD25+ (human PBMC [2]): 65.9±11.8% | percentage of CD4+ T cells that are CD69+ (human PBMC [2]): 69.4±3.4% | percentage of CD8+ T cells that are CD25+ (human PBMC [2]): 43.9+9.0% | percentage of CD8+ T cells that are CD69+ (human PBMC [2]): 67.9±9.6% | percentages of both CD69+CD4+ T cells and CD69+CD8+ T cells (in words) (human PBMC [2]): significant reduction | fold decrease in the percentage of cells in the S phase (human PBMC [3]): 3.5 fold | fold increase in the number of cells with hypodiploid DNA content (human PBMC [3]): 8.8 fold | percentage of BrdU labeled CD4+ cells (human PBMC [3]): 3.9±0.6% | percentage of BrdU labeled CD8+ cells (human PBMC [3]): 4.8±1.8% | percentage of cells in S phase (human PBMC [3]): 8.0±0.5% | percentage of cells with hypodiploid DNA (human PBMC [3]): 22.0±2.2% | fold increase in apoptotic CD4+ cells (human PBMC [4]): 3.6 fold | fold increase in apoptotic CD8+ cells (human PBMC [4]): 2.0 fold | percentage of Annexin V+ PI- CD4+ (human PBMC [4]): 43.6±5.8% | percentage of Annexin V+ PI− CD8+ (human PBMC [4]): 29.7±3.7% | IL-1β (human PBMC [5]): dose-dependent reduction | IL-4 (human PBMC [5]): trend toward decrease | IL-6 (human PBMC [5]): no pattern | IL-10 (human PBMC [5]): increase | MCP-1 (human PBMC [5]): dose-dependent reduction | MIP1-α (human PBMC [5]): no effect | TNF-α (human PBMC [5]): dose-dependent reduction | anti-CD3/CD28-induced production of IFN-γ (human PBMC [5]): suppressed | anti-CD3/CD28-induced production of IL-12p40 (human PBMC [5]): suppressed | production of IL-2 (human PBMC [5]): suppressed | T cell activation (in words) (Rhesus macaque PBMC [6]): Decreased | depletion of CD4+ T cells and CD8+ T cells (in words) (Rhesus macaque PBMC [6]): Significant depletion | apoptosis (in words) (Rhesus macaque PBMC [7]): increased | IFN-γ (Rhesus macaque PBMC [8]): significant decrease | IL1-β (Rhesus macaque PBMC [8]): significant decrease | IL-12p40 (Rhesus macaque PBMC [8]): significant decrease | Levels of IL-8 (Rhesus macaque PBMC [8]): did not alter | Levels of MIP1-α (Rhesus macaque PBMC [8]): did not alter | TNF-α (Rhesus macaque PBMC [8]): significant decrease | levels of IL-2 [9]: decreased levels | levels of IL-10 [9]: increased levels | levels of IL-12 [9]: decreased levels | activation and cell death in purified CD4+ or CD8+ T cell population [10]: sufficient to induce activation and cell death

ILNRKAIDFLLQRWGGT [SEBOV peptide]
CD69+CD4+ T cells (in words) (human PBMC [2]): trend toward reduction | percentage of CD69+ CD8+ T cells (in words) (human PBMC [2]): significant reduction | induction of apoptosis in CD4+ and CD8+ T cells (in words) (human PBMC [4]): Effects were similar

LQNRRGLDLLFLKEGGL [CKS-17, reference compound]
levels of IL-2 [9]: decreased levels | levels of IL-10 [9]: increased levels | levels of IL-12 [9]: decreased levels | activity of protein kinase C (protein kinase C): blocks the activity
